According to patent US10487088B2, “Tricyclic compound serving as immunomodulator” (Chia Tai Tianqing Pharmaceutical Group Co., Ltd., priority 2016, dated 2019):
“Also recorded” adds a separate entry of the source. One block for each compound: values may come before it.

How the values were obtained:
[1] = target: T1, IDO1 enzyme in Hela cells (Homo sapiens, UniProt P14902); assay: hIDO1 cytological activity assay (kynurenine in Hela cells by LC-MS); type: cell-based; details: Hela cells induced with 100 ng/mL recombinant human γ-interferon, 20 h, read-out: IC50 hIDO1 Cytoactive
T1 construct: recombinant human γ-interferon was added at a final concentration of 100 ng/mL to induce IDO1 expression; endogenous in cells; host or cells: Hela cells, induced with recombinant human γ-interferon
Method: The change of kynurenine in Hela cells was detected by the LC-MS method, and the IC50 value of the compound was used as an index, to evaluate the inhibitory effect of the compound on IDO1 enzyme.
A medium, trypsin and DPBS were pre-heated in a 37° C. water bath. The medium for cell culture was sucked out and washed with 10 mL of DPBS; then the pre-heated trypsin was added into the culture flask, and the flask was rotated to allow the trypsin to uniformly cover it, and then placed in a 37° C., 5% CO2 incubator and digested for 1-2 min; in each T150, cells were dispersed with 10-15 mL of medium, centrifuged at 800 rpm for 5 min, and then resuspended in 10 mL of medium; 1 mL of cell suspension was pipetted and the cells were counted with Vi-cell; Hela cells were diluted with medium to 5×10^5/mL, 80 μL of the solution was added to a 96-cell plate, and cultured at 37° C. for 5-6 h in a 5% CO2 incubator.
The compound was diluted to 1 mM in DMSO, and then diluted 3-fold in duplicate wells, with 9 gradients. 5 μL of the diluted solution of the compound in DMSO was added to the compound plate containing 95 μL of the medium, and mixed, followed by transferring 10 μL of the mixture to a cell plate.
10 μL of recombinant human γ-interferon was added at a final concentration of 100 ng/mL to induce IDO1 expression. The cells were incubated at 37° C. for 20 h in a 5% CO2 incubator. 4 μL of 5% (w/v) trichloroacetic acid was added thereto, mixed and incubated at 50° C. for 30 min. After centrifugation at 2400 rpm for 10 min, 40 μL of the supernatant was taken and placed in a 96-well V-bottom plate, and then a precipitant was added in the plate. After mixing, the mixture was centrifuged at 4000 rpm for 10 min. 100 μL of the supernatant was transferred to a new 96-well V-bottom plate. The content of kynurenine was determined by LC-MS.
The control wells having γ-interferon but no compound was set as 0% inhibition, and the control wells without Hela cell was set as 100% inhibition, and the IC50 value of the compound was calculated by analyzing the data with XLFit 5.

[2] = target: IDO1 (Mus musculus, UniProt P28776); assay: In vivo pharmacodynamics of IDO1: Kyn level in lung and plasma of LPS-induced C57BL/6 mice
Method: Prior to the experiment, 60 mg/kg sodium pentobarbital was injected into the abdominal cavity of the animals for anesthetizing. […] LPS was dissolved in PBS, and the dose is 25 μg/20 μL per animal. As a control, another 6 mice were received the same volume of PBS through the nasal cavity. Subsequently, the animals were housed as usual, and their plasma were collected at 25 h, 26 h, and 30 h after LPS/PBS induction, and the lung samples were collected at 26 h and 30 h (3 animals per a time point) and determined the kynurenine (Kyn) level.
Group 1, 40% polyethylene glycol 400 (PEG400) aqueous solution orally as a solvent control;
Group 2, 50 mg/kg NLG919 orally, formulated in 40% PEG400 aqueous solution;
Plasma were collected at 1 h, 2 h, 4 h and 6 h after the end of the last administration, and lung samples were collected at 2 h and 6 h (3 to 5 animals per a time point) and determined the Kyn level by the LC/MS method.

[3] = target: T2, recombinant human IDO1 enzyme (Homo sapiens, UniProt P14902); assay: In vitro hIDO1 enzyme activity test (NFK Green fluorescence); type: biochemical; details: recombinant human IDO1, L-tryptophan substrate, pH 6.5
T2 construct: purchased NTRC NTRC-hlDO-10K
How it was run: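 Recombinant human IDO1 diluted to 20 nM in pH 6.5 phosphate buffer with ascorbate, catalase and methylene blue, preincubated with compound 30 min at 23° C, then L-tryptophan added (400 μM solution) for 90 min. NFK Green developed 4 h at 37° C (Ex 400/Em 510 nm); IC50 from 10-point 3-fold series, no-enzyme wells as 100% inhibition.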

T2 sequence (P14902 whole entry): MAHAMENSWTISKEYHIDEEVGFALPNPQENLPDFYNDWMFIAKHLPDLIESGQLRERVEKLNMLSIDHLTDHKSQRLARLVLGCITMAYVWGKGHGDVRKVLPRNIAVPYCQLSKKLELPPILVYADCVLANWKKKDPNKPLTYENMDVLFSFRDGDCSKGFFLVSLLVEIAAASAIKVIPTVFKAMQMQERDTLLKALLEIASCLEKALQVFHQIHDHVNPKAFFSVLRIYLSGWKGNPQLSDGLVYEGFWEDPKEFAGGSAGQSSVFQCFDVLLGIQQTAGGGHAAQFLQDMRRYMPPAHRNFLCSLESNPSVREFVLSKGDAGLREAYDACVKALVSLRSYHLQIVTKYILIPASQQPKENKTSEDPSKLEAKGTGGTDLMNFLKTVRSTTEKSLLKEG
T1 sequence (P14902 whole entry): as above
IDO1, sequence (P28776 whole entry): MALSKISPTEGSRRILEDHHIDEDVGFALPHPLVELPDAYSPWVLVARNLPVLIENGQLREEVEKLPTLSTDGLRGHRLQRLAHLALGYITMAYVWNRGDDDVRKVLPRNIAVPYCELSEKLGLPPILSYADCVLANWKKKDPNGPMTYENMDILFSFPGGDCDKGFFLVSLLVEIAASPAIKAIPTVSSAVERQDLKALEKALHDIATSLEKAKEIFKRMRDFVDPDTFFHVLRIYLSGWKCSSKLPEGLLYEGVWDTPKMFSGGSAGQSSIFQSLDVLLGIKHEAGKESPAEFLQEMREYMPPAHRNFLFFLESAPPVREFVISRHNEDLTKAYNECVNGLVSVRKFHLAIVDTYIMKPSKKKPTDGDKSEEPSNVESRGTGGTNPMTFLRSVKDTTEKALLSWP

Compound: OC1CCCCC1C1c2sccc2-c2cncn21 (single isomer, unassigned) [Example 53, 2-(8H-thieno[3,4]pyrrolo[1,5-a]imidazol-8-yl)cyclohexanol]
IC50 [1]: 377 nM
IC50 [3]: 161 nM

Compound: FC1(F)[C@@H]2C[C@@H](C3c4sccc4-c4cncn43)C[C@@H]21 (single isomer, unassigned) [Example 62, 8-[6,6-difluoro-3-bicyclo[3.1.0]cyclohexyl]-8H-thieno[3,4]pyrrolo[1,5-a]imidazole (trans)]
IC50 [1]: 446 nM
IC50 [3]: 199 nM

Compound: FC1(F)[C@@H]2C[C@@H](C3c4sccc4-c4cncn43)C[C@@H]21 (single isomer, unassigned) [Example 63, 8-[6,6-difluoro-3-bicyclo[3.1.0]cyclohexyl]-8H-thieno[3,4]pyrrolo[1,5-a]imidazole (trans)]
IC50 [1]: > 5000 nM
IC50 [3]: 8800 nM

Compound: c1cc2c(s1)C(C1CCCCCC1)n1cncc1-2 (single isomer, unassigned) [Example 73, 8-cycloheptyl-8H-thieno[3,4]pyrrolo[1,5-a]imidazole]
IC50 [1]: > 5000 nM
IC50 [3]: > 10000 nM

Compound: OC1CCC(C2c3sccc3-c3cncn32)CC1 (single isomer, unassigned) [Example 117, 4-(8H-thieno[3,4]pyrrolo[1,5-a]imidazol-8-yl)-cyclohexanol]
IC50 [1]: 891 nM
IC50 [3]: 215 nM

Compound: CC(C)(C(O)C1CCCCC1)C1c2sccc2-c2cncn21 (single isomer, unassigned) [Example 119, 1-cyclohexyl-2-methyl-2-(8H-thieno[3,4]pyrrolo[1,5-a]imidazol-8-yl)-propan-1-ol]
IC50 [1]: 1980 nM
IC50 [3]: 390 nM

Compound: OC(CC1c2ccsc2-c2cncn21)C1CCCCC1 (stereo not shown) [Example 4, 1-cyclohexyl-2-(4H-thieno[3,4]pyrrolo[1,5-a]imidazol-4-yl)ethanol]
IC50 [1]: 613 nM
IC50 [3]: 83.6 nM

Now those with a lower IC50 [1], led by results:

IC50 [1]: 5.08 nM
IC50 [3]: 7.22 nM
Compound: OC(CC1c2sccc2-c2cncn21)C1CCCCC1 (single isomer, unassigned) [Example 7, cyclohexyl-2-(8H-thieno[3′,2′:3,4]pyrrolo[1,2-c]imidazol-8-yl)ethanol]
in vivo activity of IDO1 / reduction of the Kyn level in lung and plasma ([2]; 50 mg/kg orally at 0, 12 h and 24 h after induction, plasma 1-6 h, lung 2 h and 6 h after last administration): effectively inhibited in vivo activity of IDO1 and caused reduction of the Kyn level in lung and plasma
degree of Kyn level reduction in lung and plasma compared to NLG919 ([2]; 50 mg/kg orally, comparison with NLG919 at same dose, 50 mg/kg): more significant than that of NLG919; also recorded: significantly reduced the Kyn level in lung and plasma

IC50 [1]: 223 nM
IC50 [3]: 99.9 nM
Compound: c1cc2c(s1)C(C1CCCCCC1)n1cncc1-2 (single isomer, unassigned) [Example 72, 8-cycloheptyl-8H-thieno[3,4]pyrrolo[1,5-a]imidazole]

IC50 [1]: 125 nM
IC50 [3]: 37 nM
Compound: FC1(F)C2CC(C3c4sccc4-c4cncn43)CC21 (single isomer, unassigned) [Example 77, 8-(6,6-difluoro-3-bicyclo[3.1.0]cyclohexyl)-8H-thieno[3,4]pyrrolo[1,5-a]imidazole (cis)]

IC50 [1]: 159 nM
IC50 [3]: 27.2 nM
Compound: OC1CCCCC1C1c2sccc2-c2cncn21 (single isomer, unassigned) [Example 85]

IC50 [1]: 90.5 nM
IC50 [3]: 46 nM
Compound: FC1(CCC2c3sccc3-c3cncn32)CCCCC1 (stereo not shown) [Example 39, 8-(2-(1-fluorocyclohexyl)ethyl)-8H-thieno[3′,2′:3,4]pyrrolo[1,2-c]imidazole]

IC50 [1]: 28 nM
IC50 [3]: 11.4 nM
Compound: O[C@@H](C[C@H]1c2sccc2-c2cncn21)C1CCC(F)(F)CC1 [Example 46, (1S)-1-(4,4-difluorocyclohexyl)-2-((S)-8H-thieno[3,4]pyrrolo[1,5-a]imidazol-8-yl)ethanol]
